Like-named read-outs stand apart in the source and are kept apart here.
Key:
[1] = system: carrageenan-induced rat-paw edema; experiment: carrageenan-induced rat paw edema method; assay type: in vivo; conditions: for antiinflammatory activity (in words): carrageenan-induced rat paw edema, 100 mg/kg; for % PROTECTION: Table 3, all compounds screened at 100 mg/kg body weight
Method: (§1) Phenyl isothiocyanate was procured from Lancaster. Methyl isothiocyanate was gift sample from Hitesh Chemicals and Drugs Pvt Ltd, Hyderabad, India. Benzoylisothiocyanate, methoxycarbonyl isothiocyanate, ethoxy carbonyl isothiocyanate, N,N-diethyl actamidine, N,N-diethyl benzamidine, N,N-diethylphenyl acetamidine and 1,4-dibromo butane 2,3-dione were prepared in our lab following the reported procedures. Carrageenin was procured from Spectrochem India limited. HIV-1 integrase assay was done at Department of Pharmaceutical Sciences, School of Pharmacy, University of Southern California, Los Angeles, USA[18]. The reported protocol was followed for carrageenin-induced rat paw edema method[19] for evaluation of antiinflammatory activity. All compounds were screened in a group of 6 animals at dose of 100 mg/kg body weight of the animal. The experimental protocol was approved by the institutional animal ethics committee, constituted as per CPCSEA, Government of India.

HIV-1 integrase = molecular target: T1, HIV-1 integrase (Human immunodeficiency virus type 1 group M subtype B, UniProt P12497); experiment: extracellular HIV-1 integrase assay (3'-processing and strand transfer); assay type: biochemical
T1 construct: […]; AS MEASURED IN AN EXT[…]-1 INTEGRASE ASSAY
Description: Integrase (IN) has emerged as an attractive target, because it is necessary for stable infection and homologous enzymes are lacking in the human host[11]. The function of IN is to catalyze integration of proviral DNA, resulting from the reverse transcription of viral RNA, into the host genome. This is achieved in a stepwise fashion by endonucleolytic processing of proviral DNA within a cytoplasmic preintegration complex (termed 3' P-processing or “3'-P”), followed by translocation of the complex into the nuclear compartment where integration of 3'-processed proviral DNA into host DNA occurs in a “strand transfer” (ST) reaction. […] (fig. 1B)[1112]. The presence of diketo pharmacophore in the synthesized compounds made us to screen these compounds in a HIV-1 integrase inhibitory assay.
as §1

cPLA2 = molecular target: T2, cPLA2 (Homo sapiens, UniProt P47712); experiment: cPLA2 inhibition; assay type: biochemical
T2 sequence (P47712 1-749): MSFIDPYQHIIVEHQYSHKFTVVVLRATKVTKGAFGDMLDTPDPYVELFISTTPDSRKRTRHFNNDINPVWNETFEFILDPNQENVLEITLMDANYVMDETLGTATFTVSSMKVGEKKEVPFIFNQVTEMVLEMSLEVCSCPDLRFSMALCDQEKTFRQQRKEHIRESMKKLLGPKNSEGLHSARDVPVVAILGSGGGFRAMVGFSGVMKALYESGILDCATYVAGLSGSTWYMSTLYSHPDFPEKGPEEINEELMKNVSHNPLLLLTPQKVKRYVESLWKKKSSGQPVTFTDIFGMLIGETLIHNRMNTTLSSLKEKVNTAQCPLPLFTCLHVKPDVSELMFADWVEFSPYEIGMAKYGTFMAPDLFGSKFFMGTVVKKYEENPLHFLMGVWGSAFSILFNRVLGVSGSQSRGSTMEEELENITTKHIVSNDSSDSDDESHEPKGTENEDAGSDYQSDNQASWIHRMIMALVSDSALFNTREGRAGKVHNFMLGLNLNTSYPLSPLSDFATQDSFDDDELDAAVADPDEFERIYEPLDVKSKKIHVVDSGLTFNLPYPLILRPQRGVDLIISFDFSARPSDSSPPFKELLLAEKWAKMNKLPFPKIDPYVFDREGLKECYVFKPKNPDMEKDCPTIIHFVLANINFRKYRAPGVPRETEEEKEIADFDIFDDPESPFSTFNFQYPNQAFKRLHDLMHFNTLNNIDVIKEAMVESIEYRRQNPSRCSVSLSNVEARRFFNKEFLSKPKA

[2] = system: TNF-α release from human peripheral blood mononuclear cells; experiment: TNF-α release from human peripheral blood mononuclear cells; assay type: cell-based
[3] = 100 mg/kg b.w, rat paw edema, group of 6 animals, read-out: % PROTECTION Dose 100 mg/kg b.w
[4] = 3'-processing step, read-out: 3'P inhibitory potency
[5] = strand transfer step, read-out: ST inhibitory potency
[6] = Rattus norvegicus, 100 mg/kg body weight, read-out: protection in the carrageenan rat paw model
[7] = rat paw edema, group of 6 animals

Compound | inhibition in vivo at 100 mg/kg [1, 3] [%] | inhibition in vivo at 100 mg/kg [1, 6] [%] | also measured
CNc1nc(C)c(C(=O)C(=O)c2sc(NC)nc2C)s1 [G-1] | 14 ± 7 | – | –
Cc1nc(Nc2ccccc2)sc1C(=O)C(=O)c1sc(Nc2ccccc2)nc1C [G-2] | 23 ± 8 | – | –
Cc1nc(Nc2ccc(Cl)cc2)sc1C(=O)C(=O)c1sc(Nc2ccc(Cl)cc2)nc1C [G-3] | 73 ± 0.3 | – | IC50 (HIV-1 integrase; [4]): 132 µM; IC50 (HIV-1 integrase; [5]): 397 µM
COC(=O)Nc1nc(C)c(C(=O)C(=O)c2sc(NC(=O)OC)nc2C)s1 [G-4] | 40 ± 2 | – | –
CCOC(=O)Nc1nc(C)c(C(=O)C(=O)c2sc(NC(=O)OCC)nc2C)s1 [G-5] | 33 ± 0.9 | – | –
O=C(Nc1nc(-c2ccccc2)c(C(=O)C(=O)c2sc(NC(=O)c3ccccc3)nc2-c2ccccc2)s1)c1ccccc1 [G-6] | 74 ± 0.5 | > 50 | cPLA2 inhibition (in words) (cPLA2): weakly inhibited; melting point: 234 to 236 °C; IC50 (HIV-1 integrase; [4]): > 500 µM; IC50 (HIV-1 integrase; [5]): 277 µM; effect on TNF-α release [2]: did not have any effect
O=C(C(=O)c1sc(Nc2ccccc2)nc1-c1ccccc1)c1sc(Nc2ccccc2)nc1-c1ccccc1 [G-7] | 70 ± 0.7 | > 50 | antiinflammatory activity (in words) [1]: good antiinflammatory activity
O=C(C(=O)c1sc(Nc2ccc(Cl)cc2)nc1-c1ccccc1)c1sc(Nc2ccc(Cl)cc2)nc1-c1ccccc1 [G-8] | 66 ± 1 | > 50 | –
COC(=O)Nc1nc(-c2ccccc2)c(C(=O)C(=O)c2sc(NC(=O)OC)nc2-c2ccccc2)s1 [G-9] | 26 ± 3 | – | –
CCOC(=O)Nc1nc(-c2ccccc2)c(C(=O)C(=O)c2sc(NC(=O)OCC)nc2-c2ccccc2)s1 [G-10] | 34 ± 4 | – | –
O=C(C(=O)c1sc(Nc2ccccc2)nc1Cc1ccccc1)c1sc(Nc2ccccc2)nc1Cc1ccccc1 [G-11] | 23 ± 2 | – | –
O=C(C(=O)c1sc(Nc2ccc(Cl)cc2)nc1Cc1ccccc1)c1sc(Nc2ccc(Cl)cc2)nc1Cc1ccccc1 [G-12] | 72 ± 1 | > 50 | antiinflammatory activity (in words) [1]: good antiinflammatory activity
COC(=O)Nc1nc(Cc2ccccc2)c(C(=O)C(=O)c2sc(NC(=O)OC)nc2Cc2ccccc2)s1 [G-13] | 35 ± 2.5 | – | –
CCOC(=O)Nc1nc(Cc2ccccc2)c(C(=O)C(=O)c2sc(NC(=O)OCC)nc2Cc2ccccc2)s1 [G-14] | 38 ± 2 | – | –
O=C(Nc1nc(Cc2ccccc2)c(C(=O)C(=O)c2sc(NC(=O)c3ccccc3)nc2Cc2ccccc2)s1)c1ccccc1 [G-15] | 47 ± 2.3 | – | –
O=C(C(=O)c1sc(N2CCCCC2)nc1-c1ccccc1)c1sc(N2CCCCC2)nc1-c1ccccc1 [G-16] | – | > 50 | % PROTECTION [1, 7]: 65±0.8%
O=C(C(=O)c1sc(N2CCOCC2)nc1-c1ccccc1)c1sc(N2CCOCC2)nc1-c1ccccc1 [G-17] | – | > 50 | % PROTECTION [1, 7]: 81±0.5%; IC50 (HIV-1 integrase; [4]): > 500 µM; IC50 (HIV-1 integrase; [5]): 109 µM; effect on TNF-α release [2]: did not have any effect
CN1CCN(c2nc(-c3ccccc3)c(C(=O)C(=O)c3sc(N4CCN(C)CC4)nc3-c3ccccc3)s2)CC1 [G-18] | – | > 50 | % PROTECTION [1, 7]: 60±0.5%
CCN1CCN(c2nc(-c3ccccc3)c(C(=O)C(=O)c3sc(N4CCN(CC)CC4)nc3-c3ccccc3)s2)CC1 [G-19] | – | > 50 | % PROTECTION [1, 7]: 72±0.5%; effect on TNF-α release [2]: did not have any effect
O=C(C(=O)c1sc(N2CCN(c3ccccc3)CC2)nc1-c1ccccc1)c1sc(N2CCN(c3ccccc3)CC2)nc1-c1ccccc1 [G-20] | – | > 50 | % PROTECTION [1, 7]: 55±4%; IC50 (HIV-1 integrase; [4]): 122 µM; IC50 (HIV-1 integrase; [5]): 87 µM
O=C(C(=O)c1sc(N2CCN(Cc3ccccc3)CC2)nc1-c1ccccc1)c1sc(N2CCN(Cc3ccccc3)CC2)nc1-c1ccccc1 [G-21] | – | > 50 | % PROTECTION [1, 7]: 85±0.3%

Source: article PMC2865783, “Synthesis, Antiinflammatory and HIV-1 Integrase Inhibitory Activities of 1,2-Bis[5-thiazolyl]ethane-1,2-dione Derivatives” (Indian Journal of Pharmaceutical Sciences, 2009)
